Drawing on PubChem BioAssay (NCI), this text covers TGI for 9 compounds.

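Results reflect a 48-hour exposure of cells in 96-well plates to compound at five concentrations. TGI denotes the concentration required for complete inhibition of growth.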 Some results are limits rather than exact numbers.

Some test systems named below: NCI-H522 lung; SF-295 CNS; M14 melanoma; NCI-H23 lung; PC-3 prostate; OVCAR-4 ovarian; HOP-62 NSCLC; KM12 colon; UO-31 renal; RPMI-8226 leukemia; T-47D breast; 786-0 renal; SK-MEL-2 melanoma; UACC-62 melanoma; MDA-MB-231 breast; UACC-257 melanoma; DU-145 prostate; SN12C renal; SR leukemia; MDA-N.
Assay in all cases: growth of human tumour cells (NCI), 48 h

Regarding `Cc1ccc(NC(=O)CC(=O)N2N=C(N(c3ccccc3)c3ccccc3)CC2c2ccccc2)cc1` (stereo not given), the TGI in the assay with NCI-H522 lung, in the assay with SF-295 CNS, in the assay on M14 melanoma, with NCI-H23 lung, in the assay with PC-3 prostate and with OVCAR-4 ovarian was greater than 100 µM each time. The TGI in the assay on HOP-62 NSCLC, with KM12 colon, in the assay on UO-31 renal, with RPMI-8226 leukemia, with T-47D breast and with 786-0 renal was greater than 100 µM in each case. Further, the TGI in the assay with SK-MEL-2 melanoma, with UACC-62 melanoma, in the assay on MDA-MB-231 breast, in the assay with UACC-257 melanoma and in the assay with DU-145 prostate was greater than 100 µM throughout.
With `CCCN(CCCC(NC(C)=O)C(=O)NCc1ccccc1)C(=O)N(C)N=O` (stereo not given), the TGI with NCI-H522 lung, in the assay with SF-295 CNS, in the assay with M14 melanoma, in the assay with NCI-H23 lung, in the assay on OVCAR-4 ovarian and in the assay on HOP-62 NSCLC was greater than 100 µM each time. In addition, the TGI in the assay with KM12 colon, with RPMI-8226 leukemia, in the assay on 786-0 renal, in the assay on SN12C renal, in the assay with SK-MEL-2 melanoma and in the assay with UACC-62 melanoma was greater than 100 µM in each case. Moreover, the TGI with UACC-257 melanoma is greater than 100 µM.
Turning to `CC12CCC(=O)N1[C@@H](c1ccccc1)[C@@H](c1ccccc1)O2` (stereo not given in full), the TGI in the assay on NCI-H522 lung, in the assay with SF-295 CNS, in the assay with M14 melanoma, in the assay on OVCAR-4 ovarian, with HOP-62 NSCLC and in the assay on KM12 colon was greater than 100 µM throughout. Besides, the TGI in the assay with UO-31 renal, with 786-0 renal, in the assay on SN12C renal, in the assay with SK-MEL-2 melanoma, with UACC-62 melanoma and in the assay with UACC-257 melanoma was greater than 100 µM in each case.
Consider `c1ccc(C2(c3cc4ccccc4[nH]3)OCCO2)nc1`, for which the TGI with SF-295 CNS, in the assay with M14 melanoma, with NCI-H23 lung, with PC-3 prostate, with OVCAR-4 ovarian and in the assay with HOP-62 NSCLC was greater than 100 µM in each case. For the same compound, the TGI in the assay with KM12 colon, in the assay on UO-31 renal, with T-47D breast, in the assay on 786-0 renal, with SK-MEL-2 melanoma and in the assay with UACC-62 melanoma was greater than 100 µM in each case. The TGI with MDA-MB-231 breast, in the assay on UACC-257 melanoma and with DU-145 prostate was greater than 100 µM each time.
For the compound `Cc1c(N)c(C#N)c2n(C)c3ncccc3n2c1=O`, the TGI in the assay on NCI-H522 lung, with SF-295 CNS, in the assay on M14 melanoma, in the assay on SR leukemia, with NCI-H23 lung and in the assay with OVCAR-4 ovarian was greater than 100 µM in each case. Moreover, the TGI in the assay on HOP-62 NSCLC, with KM12 colon, with UO-31 renal, in the assay with RPMI-8226 leukemia, with 786-0 renal and in the assay on SN12C renal was greater than 100 µM in each case. Also, the TGI with SK-MEL-2 melanoma, in the assay on UACC-62 melanoma and with UACC-257 melanoma was greater than 100 µM throughout.
On to `CC(C)(C)OC(=O)NC(Cc1ccc(OC(C)(C)C)cc1)C(=O)N[C@H]1CC[C@H](C(=O)O)C1` (stereo not given in full), for which the TGI in the assay with NCI-H522 lung, in the assay on SF-295 CNS, with M14 melanoma, in the assay on SR leukemia, with NCI-H23 lung and with PC-3 prostate was greater than 100 µM each time. Moreover, the TGI with HOP-62 NSCLC, with KM12 colon, in the assay with MDA-N, in the assay on RPMI-8226 leukemia, in the assay on 786-0 renal and in the assay with SN12C renal was greater than 100 µM throughout. The TGI with SK-MEL-2 melanoma, in the assay on MDA-MB-231 breast, in the assay on UACC-257 melanoma and in the assay on DU-145 prostate was greater than 100 µM in each case.
For the compound `CCN(CC)CC(C(C)=O)C(c1ccccc1)c1c(O)c2ccccc2oc1=O` (stereo not given), the TGI in the assay on NCI-H522 lung, in the assay on SF-295 CNS, with M14 melanoma, in the assay on SR leukemia, in the assay on OVCAR-4 ovarian and with HOP-62 NSCLC was greater than 100 µM in each case. The TGI in the assay with KM12 colon, in the assay on UO-31 renal, in the assay on RPMI-8226 leukemia, with 786-0 renal, in the assay on SN12C renal and in the assay on SK-MEL-2 melanoma was greater than 100 µM each time. The TGI in the assay on UACC-62 melanoma and with UACC-257 melanoma was greater than 100 µM each time.
For `O=[N+]([O-])c1ccc(C2Nn3c(nnc3-c3cccc([N+](=O)[O-])c3)S2)cc1` (stereo not given), the TGI with NCI-H522 lung, in the assay with SF-295 CNS, in the assay with M14 melanoma, in the assay with SR leukemia, in the assay on NCI-H23 lung and in the assay on PC-3 prostate was greater than 100 µM in each case. Further, the TGI in the assay on OVCAR-4 ovarian, in the assay on HOP-62 NSCLC, with KM12 colon, in the assay with UO-31 renal, with RPMI-8226 leukemia and in the assay with T-47D breast was greater than 100 µM each time. Also, the TGI with 786-0 renal, with SN12C renal, with SK-MEL-2 melanoma, with UACC-62 melanoma, in the assay on MDA-MB-231 breast and with UACC-257 melanoma was greater than 100 µM each time. The compound further returned a TGI with DU-145 prostate greater than 100 µM.
As to `COC(=O)C1=C(N)C2=C(N)Oc3ccccc3C2CC1=C(C#N)C#N` (stereo not given), the TGI in the assay with NCI-H522 lung was 40.7 µM; in the assay on SF-295 CNS, 90.2 µM; in the assay on M14 melanoma it was 43.3 µM; with SR leukemia it was greater than 100 µM; in the assay on NCI-H23 lung it was 54 µM; in the assay on PC-3 prostate, greater than 100 µM. For the same compound, the TGI with OVCAR-4 ovarian was 76.1 µM; with HOP-62 NSCLC it was greater than 100 µM; in the assay on KM12 colon, 29.5 µM; in the assay with UO-31 renal, 53.6 µM; in the assay on RPMI-8226 leukemia it was 48.6 µM; in the assay on T-47D breast, 67.1 µM. Also, the TGI is greater than 100 µM in the assay with 786-0 renal; 92.6 µM in the assay with SN12C renal; greater than 100 µM with SK-MEL-2 melanoma; 36.3 µM in the assay with UACC-62 melanoma; 59.4 µM in the assay on MDA-MB-231 breast; greater than 100 µM in the assay on UACC-257 melanoma. Also, in the assay on DU-145 prostate, the TGI came to 61.9 µM.
